# In US11286463B2, “Reprogramming of aged adult stem cells” (priority 2012, dated 2022):
# System: 84 genes reported to be linked to cellular aging, epigenetics and senescence
# Test: qPCR gene array of AASC in transwell culture with YASC
# Format: cell-based, human
# Settings: 5 μM manumycin
# Description: In an embodiment, the methods of the present disclosure further comprise exposure of AASCs to the Intracellular Matrix (ICM) of the YASCs through placement of a transwell culture insert containing YASC into the tissue culture dish chamber. Mobilized PBMCs (1×10^7) from the second subjects are added to the outer well of 12-well transwell cultures containing a […] BD Falcon™ insert. Any membrane insert able to provide a cell-free filtrate to cultures of AASCs may be employed. In parallel, mobilized PBMCs (1×10^7) from the first subjects are added to the inner well of the 12-well plate. Cells may then be cultivated in a suitable media (e.g., RPMI-1640 (Gibco) supplemented with 10% fetal calf serum (FCS) and β-mercaptoethanol (β-ME)) for a time period of the type disclosed herein (e.g., 8-weeks), under standard culture conditions (e.g., 50% media changed every 4 days).
# For experiments investigating the contribution of exosomes as the membrane-permeable factors responsible for AASC reprogramming (i.e reprogramming agents), the exosomal inhibitor manumycin A (Sigma-Aldrich) can be added to the culture media at a final concentration of 5 μM at days 0 and 14 of the cultivation period.
# AASC reprogramming was carried out using the one-step process depicted in the middle workflow of FIGS. 1 and 2. […]
smiles,measurement,value
"CCCC[C@@H](C)/C=C(C)/C=C(\C)C(=O)NC1=C[C@@](O)(/C=C/C=C/C=C/C(=O)NC2=C(O)CCC2=O)[C@@H]2O[C@@H]2C1=O [manumycin, -[(1S,5S,6R)-5-hydroxy-5-[(1E,3E,5E)-7-[(2-hydroxy-5-oxo-1-cyclopenten-1-yl)amino]-7-oxo-1,3,5-heptatrien-1-yl]-2-oxo-7-oxabicyclo[4.1.0]hept-3-en-3-yl]-2E,4E,6R-trimethyl,2,4-decadienamide]",gene expression levels of AASC co-cultured with YASC compared to absence of manumycin,displayed changes in gene expression levels
